We go through 35 molecules from ChEMBL document CHEMBL1122998, “New antihistaminic theophylline or theobromine derivatives” (1985).

Experiment [1] concerns Cavia porcellus. In words: Percent decrease in bronchodilator activity against acetylcholine-induced bronchospasm reaction in guinea pig by intraveneous administration at dose 250 ug/kg. The format is functional.
Experiment [2] deals with Rattus norvegicus. Nature of the experiment: Percentage decrease in antiallergic activity against cutaneous reaction to histamine in rat, by oral administration at a dose of 10 mg/kg. The experiment is classed as functional.
In experiment [3] the test system is Rattus norvegicus. In words: Percent decrease in antiallergic activity by antigen/antibody reaction assay in rat by oral administration at a dose of 10 mg/kg. The format is functional.
The test system of experiment [4] is Cavia porcellus. Nature of the experiment: Percent decrease in bronchodilator activity against histamine-induced bronchospasm reaction in guinea pig by intraveneous administration at dose 10.5 ug/kg.
Experiment [5] concerns Cavia porcellus. In words: Percentage decrease in bronchodilator activity against serotonin-induced bronchospasm reaction in guinea pig by intraveneous administration at dose 250 ug/kg. The format is functional.

Regarding `Cc1ccc(SCCCN2CCN(CCCn3c(=O)c4c(ncn4C)n(C)c3=O)CC2)cc1`, the Decrease in the experiment on Cavia porcellus [1] was determined as 24%; in the experiment on Rattus norvegicus [2], 6.5%; with Rattus norvegicus [3], 0%; with Cavia porcellus [4], 13%; in the experiment on Cavia porcellus [5], 6%.

Consider `Cn1c(=O)c2c(ncn2C/C=C/CN2CCN(CCCSc3ccccc3)CC2)n(C)c1=O`, for which the Decrease in the experiment with Cavia porcellus [1] is 0%; in the experiment on Rattus norvegicus [2], 4%; with Rattus norvegicus [3] it was 8%; in the experiment with Cavia porcellus [4], 8%; in the experiment on Cavia porcellus [5], 20%.

For `COc1ccc(OCCCN2CCN(CC(O)Cn3c(=O)c4c(ncn4C)n(C)c3=O)CC2)cc1` (stereo unspecified), the Decrease came to 11% in the experiment with Cavia porcellus [1]; 0% in the experiment on Rattus norvegicus [2]; 0% in the experiment with Rattus norvegicus [3]; 28% with Cavia porcellus [4]; 3% in the experiment with Cavia porcellus [5].

In the case of `Cn1c(=O)c2c(ncn2CC(O)CN2CCN(CC(O)CSc3ccccc3)CC2)n(C)c1=O` (stereo unspecified), the Decrease was found to be 0% with Cavia porcellus [1]; 29% in the experiment with Rattus norvegicus [2]; 0% in the experiment with Rattus norvegicus [3]; 89% in the experiment with Cavia porcellus [4]; 0% with Cavia porcellus [5].

For `Cn1cnc2c1c(=O)n(CC(O)CN1CCN(CCCOc3ccc(Cl)cc3)CC1)c(=O)n2C` (stereo unspecified), the Decrease in the experiment with Cavia porcellus [1] was found to be 14%; in the experiment with Rattus norvegicus [2], 24%; in the experiment on Rattus norvegicus [3], 23%; in the experiment on Cavia porcellus [4], 19%; in the experiment on Cavia porcellus [5], 11%.

Turning to `Cn1cnc2c1c(=O)n(CCCN1CCN(CCCSc3ccc(Cl)cc3)CC1)c(=O)n2C`, the Decrease is listed as 27% with Cavia porcellus [1]; 12% in the experiment on Rattus norvegicus [2]; 17.5% in the experiment on Rattus norvegicus [3]; 0% with Cavia porcellus [4]; 47% in the experiment on Cavia porcellus [5].

Turning to `Cn1cnc2c1c(=O)n(CC(O)CN1CCN(CCCOc3ccccc3)CC1)c(=O)n2C` (stereo unspecified), the Decrease with Cavia porcellus [1] was found to be 0%; in the experiment with Rattus norvegicus [2], 30%; in the experiment on Rattus norvegicus [3], 76%; with Cavia porcellus [4] it was 10%; in the experiment on Cavia porcellus [5] it was 50%.

Turning to `Cc1ccc(SCCCN2CCN(CC(O)Cn3c(=O)c4c(ncn4C)n(C)c3=O)CC2)cc1` (stereo unspecified), the Decrease in the experiment on Cavia porcellus [1] is on record as 29%; in the experiment on Rattus norvegicus [2] it was 4%; in the experiment on Rattus norvegicus [3] it was 11%; with Cavia porcellus [4], 10%; in the experiment with Cavia porcellus [5], 42%.

`Cn1c(=O)c2c(ncn2CCCN2CCN(CCCCOc3ccccc3)CC2)n(C)c1=O`: the Decrease in the experiment on Cavia porcellus [1] is 35%; with Rattus norvegicus [2] it was 0%; in the experiment on Rattus norvegicus [3], 0%; in the experiment on Cavia porcellus [4], 80%; in the experiment with Cavia porcellus [5], 26%.

In the case of `Cn1cnc2c1c(=O)n(CCCN1CCN(CCCSc3ccccc3)CC1)c(=O)n2C`, the Decrease in the experiment with Cavia porcellus [1] was determined as 10%; in the experiment with Rattus norvegicus [2], 31.5%; in the experiment with Rattus norvegicus [3] it was 15%; in the experiment on Cavia porcellus [4] it was 56%; with Cavia porcellus [5] it was 25%.

Take `Cn1c(=O)c2c(ncn2CC(=O)N2CCN(CCCSc3ccccc3)CC2)n(C)c1=O`: the Decrease in the experiment on Cavia porcellus [1] was found to be 16%; in the experiment with Rattus norvegicus [2], 10%; in the experiment on Rattus norvegicus [3] it was 15%; with Cavia porcellus [4] it was 31%; in the experiment on Cavia porcellus [5], 21%.

For `Cn1c(=O)c2c(ncn2CCCCCCN2CCN(CCCCSc3ccccc3)CC2)n(C)c1=O`, the Decrease stood at 23% in the experiment on Cavia porcellus [1]; 0% with Rattus norvegicus [2]; 0% in the experiment with Rattus norvegicus [3]; 0% with Cavia porcellus [4]; 23% in the experiment with Cavia porcellus [5].

As to `Cn1c(=O)c2c(ncn2CCN2CCN(CCCSc3ccccc3)CC2)n(C)c1=O`, the Decrease in the experiment with Cavia porcellus [1] was found to be 0%; in the experiment with Rattus norvegicus [2], 21%; with Rattus norvegicus [3], 28%; in the experiment with Cavia porcellus [4] it was 0%; in the experiment with Cavia porcellus [5], 48%.

Regarding `Cn1c(=O)c2c(ncn2CCCN2CCN(CCCOc3ccccc3)CC2)n(C)c1=O`, the Decrease is recorded as 30% with Cavia porcellus [1]; 28% with Rattus norvegicus [2]; 48% with Rattus norvegicus [3]; 88% with Cavia porcellus [4]; 35% in the experiment with Cavia porcellus [5].

For `Cn1c(=O)c2c(ncn2CC(O)CN2CCN(CCCCOc3ccccc3)CC2)n(C)c1=O` (stereo unspecified), the Decrease is listed as 45% in the experiment on Cavia porcellus [1]; 0% with Rattus norvegicus [2]; 0% with Rattus norvegicus [3]; 82% with Cavia porcellus [4]; 22% with Cavia porcellus [5].

Turning to `CN1CCC(=C2c3ccccc3CC(=O)c3sccc32)CC1` [KETOTIFEN], the Decrease with Rattus norvegicus [2] turned out to be 90%; in the experiment with Rattus norvegicus [3], 64%; in the experiment with Cavia porcellus [4] it was 10%.

`Cc1cc(OCCCN2CCN(CC(O)Cn3c(=O)c4c(ncn4C)n(C)c3=O)CC2)cc(C)c1Cl` (stereo unspecified): the Decrease came to 0% in the experiment with Cavia porcellus [1]; 8% with Rattus norvegicus [2]; 8% with Rattus norvegicus [3]; 2% with Cavia porcellus [4]; 53% in the experiment on Cavia porcellus [5].

Take `Cn1c(=O)c2c(ncn2CC(O)CN2CCN(CCCCSc3ccccc3)CC2)n(C)c1=O` (stereo unspecified): the Decrease is given as 34% in the experiment with Cavia porcellus [1]; 0% in the experiment on Rattus norvegicus [2]; 0% with Rattus norvegicus [3]; 13% with Cavia porcellus [4]; 0% in the experiment with Cavia porcellus [5].

In the case of `Cn1c(=O)c2c(ncn2CC(O)CN2CCN(CCCOc3ccc(Cl)cc3)CC2)n(C)c1=O` (stereo unspecified), the Decrease with Cavia porcellus [1] is 0%; in the experiment on Rattus norvegicus [2], 44%; with Rattus norvegicus [3], 22%; with Cavia porcellus [4], 19%; in the experiment with Cavia porcellus [5] it was 0%.

Take `Cn1c(=O)c2c(ncn2CCCN2CCN(CCOc3ccccc3)CC2)n(C)c1=O`: the Decrease with Cavia porcellus [1] is recorded as 15%; in the experiment on Rattus norvegicus [2], 0%; in the experiment with Rattus norvegicus [3], 0%; in the experiment with Cavia porcellus [4] it was 70%; in the experiment on Cavia porcellus [5], 0%.

Consider `Cn1c(=O)c2c(ncn2CC(O)CN2CCN(CCCSc3ccc(Cl)cc3)CC2)n(C)c1=O` (stereo unspecified), for which the Decrease in the experiment on Cavia porcellus [1] is on record as 0%; in the experiment on Rattus norvegicus [2], 67%; in the experiment with Rattus norvegicus [3], 35%; in the experiment on Cavia porcellus [4], 24%; in the experiment with Cavia porcellus [5], 0%.

Consider `Cn1cnc2c1c(=O)n(CCCN1CCN(CCCOc3ccc(Cl)cc3)CC1)c(=O)n2C`, for which the Decrease in the experiment with Cavia porcellus [1] stood at 18%; in the experiment with Rattus norvegicus [2], 12.5%; in the experiment with Rattus norvegicus [3], 13%; in the experiment on Cavia porcellus [4], 14%; in the experiment with Cavia porcellus [5] it was 30%.

For `Cn1c(=O)c2c(ncn2CCC(O)CCN2CCN(CCCSc3ccccc3)CC2)n(C)c1=O` (stereo unspecified), the Decrease in the experiment with Cavia porcellus [1] was found to be 20%; in the experiment with Rattus norvegicus [2] it was 38%; in the experiment with Rattus norvegicus [3], 70%; in the experiment with Cavia porcellus [4], 35%; in the experiment with Cavia porcellus [5], 36%.

For `Cn1c(=O)c2c(ncn2CC(O)CN2CCN(CCCOc3ccccc3)CC2)n(C)c1=O` (stereo unspecified), the Decrease with Cavia porcellus [1] is recorded as 23%; in the experiment on Rattus norvegicus [2], 78%; with Rattus norvegicus [3], 94%; with Cavia porcellus [4] it was 87%; in the experiment with Cavia porcellus [5] it was 43%.

For the molecule `Cn1c(=O)c2c(ncn2CCCN2CCN(CCCOc3ccc(Cl)cc3)CC2)n(C)c1=O`, the Decrease with Cavia porcellus [1] is 0%; in the experiment on Rattus norvegicus [2], 0%; in the experiment with Rattus norvegicus [3], 0%; in the experiment with Cavia porcellus [4] it was 30%; with Cavia porcellus [5], 0%.

Turning to `Cn1c(=O)c2c(ncn2CCCN2CCN(CCCSc3ccc(Cl)cc3)CC2)n(C)c1=O`, the Decrease is 0% with Cavia porcellus [1]; 0% in the experiment on Rattus norvegicus [2]; 0% in the experiment with Rattus norvegicus [3]; 25% with Cavia porcellus [4]; 0% in the experiment with Cavia porcellus [5].

`Cn1cnc2c1c(=O)n(CC(O)CN1CCN(CCCSc3ccc(Cl)cc3)CC1)c(=O)n2C` (stereo unspecified): the Decrease in the experiment with Cavia porcellus [1] is on record as 11%; in the experiment on Rattus norvegicus [2] it was 0%; in the experiment on Rattus norvegicus [3] it was 0%; with Cavia porcellus [4] it was 0%; in the experiment with Cavia porcellus [5] it was 8%.

Take `Cn1c(=O)c2c(ncn2CCCN2CCN(CCCCSc3ccccc3)CC2)n(C)c1=O`: the Decrease in the experiment on Cavia porcellus [1] was 34%; in the experiment with Rattus norvegicus [2] it was 0%; in the experiment with Rattus norvegicus [3], 0%; in the experiment with Cavia porcellus [4], 47%; in the experiment with Cavia porcellus [5], 24%.

On to `CC(C(=O)N1CCN(CCCSc2ccccc2)CC1)n1cnc2c1c(=O)n(C)c(=O)n2C` (stereo unspecified), for which the Decrease was found to be 4% in the experiment with Cavia porcellus [1]; 6% in the experiment on Rattus norvegicus [2]; 5% in the experiment with Rattus norvegicus [3]; 3% in the experiment with Cavia porcellus [4]; 0% in the experiment with Cavia porcellus [5].

Consider `COc1ccc(OCCCN2CCN(CC(O)Cn3cnc4c3c(=O)n(C)c(=O)n4C)CC2)cc1` (stereo unspecified), for which the Decrease with Cavia porcellus [1] worked out at 0%; with Rattus norvegicus [2], 0%; with Rattus norvegicus [3], 0%; in the experiment on Cavia porcellus [4], 27%; in the experiment with Cavia porcellus [5], 0%.

As for `Cn1c(=O)c2c(ncn2CC(O)CN2CCN(CCOc3ccccc3)CC2)n(C)c1=O` (stereo unspecified), the Decrease turned out to be 0% in the experiment on Cavia porcellus [1]; 56% with Rattus norvegicus [2]; 59% in the experiment on Rattus norvegicus [3]; 76% in the experiment on Cavia porcellus [4]; 21% with Cavia porcellus [5].

For the molecule `CN(C)CCC(c1ccc(Cl)cc1)c1ccccn1` (stereo unspecified) [CHLORPHENIRAMINE], the Decrease with Rattus norvegicus [2] is 15%; with Rattus norvegicus [3], 0%; with Cavia porcellus [4], 62%; with Cavia porcellus [5], 0%.

On to `COc1ccc(SCCCN2CCN(CCCn3cnc4c3c(=O)n(C)c(=O)n4C)CC2)cc1`, for which the Decrease came to 0% with Cavia porcellus [1], 53% with Cavia porcellus [4] and 0% in the experiment with Cavia porcellus [5].

As for `COc1cc(OCCCN2CCN(CCCn3cnc4c3c(=O)n(C)c(=O)n4C)CC2)cc(OC)c1OC`, the Decrease in the experiment with Cavia porcellus [1], in the experiment on Cavia porcellus [4] and in the experiment with Cavia porcellus [5] was 0% each time.

With `CN(CCCSc1ccccc1)CCN(C)CCCn1cnc2c1c(=O)n(C)c(=O)n2C`, the Decrease is reported as 12% in the experiment with Cavia porcellus [1], 2% with Cavia porcellus [4] and 50% in the experiment on Cavia porcellus [5].
